Read-outs that look alike come from different tables or passages of the source.
Legend:
Assay in all cases: Dose-response to palbociclib, CyQUANT NF cell proliferation after 4 days
Type in all cases: cell-based
MCF7-PR = tested on: MCF7-PR
Protocol: (§1) The inventors next generated experimental cell lines models with acquired resistance to palbociclib derived from commercially available breast cancer cell lines MCF7 and T47D (ATCC), which were cultured according to supplier's recommendation. An MCF7-derived palbociclib-resistant (MCF7-PR) and a T47D-derived palbociclib-resistant (T47D-PR) cell lines were established by treating MCF7 and T47D with palbociclib for 6 months, starting at low concentration (1 nM) and increasing them at each passage until reaching 1 µM). MCF7-PR and T47D-PR cells were maintained in complete medium with 500 nM of palbociclib. The IC50 of sensitive MCF7 and T47D as well as derived palbociclib-resistant MCF7-PR and T47D-PR cell lines was evaluated by seeding 5000 tumor cells per well in 96-well plates and adding the following day increasing doses of Palbociclib. Proliferation was assessed after 4 days with CyQUANT NF Cell Proliferation (ThermoFisher Scientific) according to manufacturer's instructions. Fluorescence measurements were taken using FL800 Fluorescence plate reader with excitation at 485 nm and emission detection at 520 nm. Surviving fraction was calculated relative to untreated control cells using the formula: % Cell viability = (treated/untreated)*100 and IC^50 values were calculated with a non-linear regression model using GraphPad PRISM software.
(§2) Next, FGFR4-depletion was induced by means of stable shRNA expression and confirmed by Western blotting using standard procedures. Specifically, sensitive MCF7 and resistant MCFR7-PR and ZR751 were infected with two independent stable FGFR4 shRNAs (shFGFR4#1 and shFGFR4#2) and, as a control, a non-targeting scramble shRNA (shControl) (Fig.2C-2D). Response to palbociclib was evaluated by incubating the cells with increasing concentrations of palbociclib as described above.

MCF7 = conditions: Homo sapiens; parental sensitive MCF7
Protocol: as §1

T47D = conditions: Homo sapiens; parental sensitive T47D
Protocol: as §1

T47D-PR = conditions: palbociclib-resistant T47D-PR
Protocol: as §1

ZR751 = conditions: Homo sapiens, ZR-75-1
Protocol: as §1, §2
In order to validate FGFR4 as a driver of CDK4/6i resistance, the inventors developed ZR751 cells that overexpressed wild-type FGFR4 (FGFR4wt) or constitutively active FGFR4 (FGFR4 Y367C) (Roidl et al., 2010). Control cells were infected with the backbone vector expressing red fluorescent protein (RFP).

IC50 (MCF7-PR; FGFR4 knockdown shFGFR4#1, read-out: IC50 MCF7-PR shFGFR4#1): 0.576 µM
IC50 (MCF7-PR; FGFR4 knockdown shFGFR4#2, read-out: IC50 MCF7-PR shFGFR4#2): 0.449 µM
IC50 (MCF7-PR; non-targeting scramble shRNA, read-out: IC50 MCF7-PR shControl): 1.55 µM
IC50 (MCF7-PR; palbociclib-resistant MCF7-PR, read-out: IC50 MCF7-PR): 2 µM
IC50 (T47D-PR): 1.8 µM
SMILES: CC(=O)c1c(C)c2cnc(Nc3ccc(N4CCNCC4)cn3)nc2n(C2CCCC2)c1=O [palbociclib]
IC50 (MCF7): 0.25 µM
IC50 (T47D): 0.05 µM
IC50 (ZR751; FGFR4 knockdown shFGFR4#1, read-out: IC50 ZR751 shFGFR4#1): 0.0802 µM
IC50 (ZR751; FGFR4 knockdown shFGFR4#2, read-out: IC50 ZR751 shFGFR4#2): 0.125 µM
IC50 (ZR751; control cells with backbone vector expressing RFP, read-out: IC50 ZR751 RFP): 0.354 µM
IC50 (ZR751; non-targeting scramble shRNA, read-out: IC50 ZR751 shControl): 3.8 µM
IC50 (ZR751; overexpressing wild-type FGFR4, read-out: IC50 ZR751 FGFR4wt): ~4200 µM

Reference: patent EP4509142A1, “FGFR4 AS TARGET IN CANCER TREATMENT” (Ona Therapeutics S.L., priority 2023, dated 2025)
